Where “and” joins values, the source holds several entries; their conditions need not be identical. Equal values may be shown once. Where a name gives a salt, the structure may show the parent alone. Read-outs that look alike come from different tables or passages of the source.
Tests used:
σ1R [1] = details: cited from earlier work
H3R = details: Figure 1, clinically evaluated H3R antagonists; cited from earlier work
σ2R [2] = molecular target: T1, σ2R (Rattus norvegicus, UniProt Q5U3Y7); assay: σ2R radioligand binding ([3H]DTG, liver membranes)
T1 sequence (Q5U3Y7 1-176): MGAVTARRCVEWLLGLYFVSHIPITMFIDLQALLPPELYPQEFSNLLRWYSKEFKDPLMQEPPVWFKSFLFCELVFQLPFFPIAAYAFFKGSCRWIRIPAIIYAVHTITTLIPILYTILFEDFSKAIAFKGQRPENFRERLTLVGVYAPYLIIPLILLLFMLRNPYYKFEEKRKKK

[3] = molecular target: T2, human recombinant histamine H3R (Homo sapiens, UniProt Q9Y5N1); details: mean [CI 95%]; read-out: hH3R Ki; cited from earlier work
T2 construct: expressed in transfected cells

σ1R [4] = assay: σ1R radioligand binding ([3H](+)-pentazocine, brain cortex membranes); details: σ2R Ki / σ1R Ki (selectivity factor)
σ1R [5] = molecular target: σ1R (Cavia porcellus, UniProt Q60492); assay: as above
female CD1 mice = assay: loperamide-induced antinociception, paw pressure struggle response latency; format: in vivo; details: for functional character at σ1 receptor deduced in vivo: from potentiation of loperamide antinociception and reversal by PRE-084; for effect on loperamide-induced antinociception: injected paw; for effect alone on struggle response latency to mechanical stimulus: 450 g paw pressure, without loperamide
human H3R = molecular target: T3, human H3R (Homo sapiens, UniProt Q9Y5N1); design: method as in PMID 33261900; details: antagonist mode; read-out: hH3R Kb; cited from earlier work
T3 construct: expressed in transfected cells

hH1R [6] = molecular target: T4, hH1R (Homo sapiens, UniProt P35367); design: method as in PMID 33261900; details: cited from earlier work
T4 construct: SP (signal peptide) (N); expressed in transfected cells

hH2R = molecular target: T5, hH2R (Homo sapiens, UniProt P25021); assay: hH2R radioligand binding ([3H]UR-DE257); details: HEK293T cells; oxalate form
T5 construct: SP (signal peptide) (N); expressed in transfected cells
Protocol: (§1) Compounds (as oxalate salts) were tested in H3R in vitro binding studies, using methods described previously.[47],[48] […] Radioligand binding experiments at the H1R, H2R, and H4R were performed as previously described in Rosier et al.[70] and Bartole et al.[71] with HEK293T-SP-FLAG-hHxR (x = 1, 2, or 4) expressing the respective hHR. […] Data represent mean values ± CI from three independent experiments, each performed in triplicate. The normalized competition binding curves were then fitted with a four-parameter logistic fit yielding IC50 values using Prism 8.4.3 software (GraphPad, SanDiego, CA). The Ki values were estimated from the Cheng–Prusoff equation.[74]

hH1R [7] = molecular target: T4, hH1R; assay: hH1R radioligand binding ([3H]mepyramine); details: HEK293T cells; oxalate form
Protocol: as §1

hH4R = molecular target: T6, hH4R (Homo sapiens, UniProt Q9H3N8); assay: hH4R radioligand binding ([3H]UR-PI294); details: HEK293T cells; oxalate form
T6 construct: SP (signal peptide) (N); expressed in transfected cells
Protocol: as §1

[8] = molecular target: T2, human recombinant histamine H3R; assay: hH3R radioligand depletion binding assay ([3H]Nα-methylhistamine); details: mean [CI 95%]; HEK293 cells; data not published yet
σ2R [9] = details: cited from earlier work
[10] = Figure 1, clinically evaluated H3R antagonists, read-out: σ1R Ki
[11] = Table S1, well-known ligands (test set), no reference given, read-out: Exp. σ1 Ki
[12] = exptl Ki σ2, Table 3, given as mean ± spread
[13] = σ2R Ki, mean [CI 95%], [3H]DTG with (+)-pentazocine mask
[14] = exptl Ki σ1, Table 3, given as mean ± spread
[15] = σ1R Ki, mean [CI 95%], [3H](+)-pentazocine
[16] = mice, ipl 100 μg + loperamide 4 mg/kg sc
[17] = Table S1, well-known ligands (test set), no reference given, read-out: Exp. σ2 Ki

Chain of σ1R (Cavia porcellus, UniProt Q60492) (Q60492 whole entry): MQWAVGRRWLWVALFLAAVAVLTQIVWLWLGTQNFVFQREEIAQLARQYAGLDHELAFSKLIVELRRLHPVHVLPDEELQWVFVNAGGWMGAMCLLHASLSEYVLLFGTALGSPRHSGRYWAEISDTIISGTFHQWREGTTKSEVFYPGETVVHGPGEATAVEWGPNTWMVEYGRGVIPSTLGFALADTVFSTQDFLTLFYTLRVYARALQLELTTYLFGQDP
T2 sequence (Q9Y5N1 whole entry): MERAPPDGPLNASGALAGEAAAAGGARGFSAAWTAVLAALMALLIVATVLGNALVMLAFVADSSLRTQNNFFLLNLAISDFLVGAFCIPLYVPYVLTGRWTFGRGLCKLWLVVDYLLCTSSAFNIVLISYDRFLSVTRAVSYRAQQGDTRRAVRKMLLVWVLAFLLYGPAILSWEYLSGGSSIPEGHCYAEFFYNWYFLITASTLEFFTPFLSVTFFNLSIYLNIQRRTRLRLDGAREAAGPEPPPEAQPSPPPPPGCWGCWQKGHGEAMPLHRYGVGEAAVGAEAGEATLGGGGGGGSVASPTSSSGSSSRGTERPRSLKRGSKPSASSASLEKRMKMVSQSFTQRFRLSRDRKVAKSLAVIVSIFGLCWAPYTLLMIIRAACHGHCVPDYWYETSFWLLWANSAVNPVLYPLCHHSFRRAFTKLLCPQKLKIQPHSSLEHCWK
T4 sequence (P35367 whole entry): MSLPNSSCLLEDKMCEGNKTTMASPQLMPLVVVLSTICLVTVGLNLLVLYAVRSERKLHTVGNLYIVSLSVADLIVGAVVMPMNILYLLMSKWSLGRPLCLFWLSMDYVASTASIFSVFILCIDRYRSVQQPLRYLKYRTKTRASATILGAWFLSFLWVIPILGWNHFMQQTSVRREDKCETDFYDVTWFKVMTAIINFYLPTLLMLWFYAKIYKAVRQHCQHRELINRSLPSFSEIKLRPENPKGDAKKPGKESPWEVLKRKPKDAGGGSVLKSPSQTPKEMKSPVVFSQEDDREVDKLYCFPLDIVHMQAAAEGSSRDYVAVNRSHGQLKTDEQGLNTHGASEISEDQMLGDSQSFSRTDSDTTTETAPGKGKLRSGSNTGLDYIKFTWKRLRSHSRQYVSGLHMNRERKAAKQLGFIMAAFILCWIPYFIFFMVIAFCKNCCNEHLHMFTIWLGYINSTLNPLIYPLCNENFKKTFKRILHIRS
T3 sequence (Q9Y5N1 whole entry): as the sequence (Q9Y5N1 whole entry) above
T5 sequence (P25021 whole entry): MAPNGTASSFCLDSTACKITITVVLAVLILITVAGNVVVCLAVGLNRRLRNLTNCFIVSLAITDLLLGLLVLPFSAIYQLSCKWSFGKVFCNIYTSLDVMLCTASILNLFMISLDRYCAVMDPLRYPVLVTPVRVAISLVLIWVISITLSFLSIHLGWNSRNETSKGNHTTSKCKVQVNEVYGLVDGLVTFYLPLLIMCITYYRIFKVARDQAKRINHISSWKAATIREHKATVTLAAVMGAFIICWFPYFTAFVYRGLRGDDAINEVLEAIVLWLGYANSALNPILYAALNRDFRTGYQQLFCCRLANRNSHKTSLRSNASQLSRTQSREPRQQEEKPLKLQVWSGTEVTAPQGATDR

Row | SMILES | Ki (σ2R [2]; [12]) [nM] | Ki (σ2R [2]; [13]) | σ2/σ1 ratio (σ1R [4]) | Ki (σ1R [5]; [14]) [nM] | Ki (σ1R [5]; [15]) [nM] | other results
1 | C[C@@H]1CCCN1CCc1cc2cc(-c3ccc(C#N)cc3)ccc2o1 [ABT-239] | – | – | – | – | – | Ki (σ1R [1]; [10]): 6.3 nM; Ki (H3R): 15.9 nM
2 | CN1CCN(CCc2ccc(Cl)c(Cl)c2)CC1 [BD1063] | – | – | – | – | – | Ki (σ1R [1]; [11]): 13.7 nM
3 | O=C(c1ccc(OCCCN2CCN(c3ccncc3)CC2)cc1)C1CC1 [Compound 4] | 101 ± 15.4 | 101 nM | 0.1 | 1530 ± 275 | 1530 | Ki [3]: 3 nM
4 | O=C(c1ccc(OCCCN2CCC(c3ccncc3)CC2)cc1)C1CC1 [Compound 5] | 22.4 ± 4.13 | 22 nM and 22.4 nM | – | 3.64 ± 0.74 | 3.64 | functional character at σ1 receptor deduced in vivo (female CD1 mice): σ1 receptor antagonists; effect on loperamide-induced antinociception (female CD1 mice; [16]): increased the antinociceptive effect of loperamide at the injected paw; effect alone on struggle response latency to mechanical stimulus (female CD1 mice; mice, ipl 100 μg): did not have any effect per se; Kb (human H3R): 18.8 nM; Ki [3]: 8 nM; Ki (hH1R [6]): > 10000 nM
5 | O=C(c1ccccc1)c1ccc(OCCCN2CCN(c3ccncc3)CC2)cc1 [Compound 8] | 29.2 ± 1.81 | 29.2 nM | – | 726 ± 177 | 726 | –
6 | O=C(c1ccc(Cl)cc1)c1ccc(OCCCN2CCN(c3ccncc3)CC2)cc1 [Compound 9] | 32.4 ± 3.46 | 32.4 nM | 0.1 | 641 ± 87.9 | 641 | –
7 | O=C(c1ccc(F)cc1)c1ccc(OCCCN2CCN(c3ccncc3)CC2)cc1 [Compound 10] | 164 ± 34.6 | 164 nM | 0.1 | 1310 ± 332 | 1310 | –
8 | CC(=O)c1ccc(OCCCCCCN2CCN(c3ccncc3)CC2)cc1 [Compound 16] | 151 ± 26.4 | 151 nM | 4.0 | 37.8 ± 16.1 | 37.8 | Ki [3]: 12.7 nM
9 | CCC(=O)c1ccc(OCCCCCCN2CCN(c3ccncc3)CC2)cc1 [Compound 17] | 110 ± 15.9 | 110 nM | 0.4 | 248 ± 30.9 | 248 | Ki [3]: 16.9 nM
10 | CC(C)(C)c1ccc(OCCCCCCN2CCN(c3ccncc3)CC2)cc1 [Compound 18] | 179 ± 27.2 | 179 nM | 0.7 | 255 ± 48 | 255 | Ki [3]: 397 nM
11 | CC(=O)c1ccc(OCCCCCCCCN2CCN(c3ccncc3)CC2)cc1 [Compound 19] | 59.7 ± 11.2 | 59.7 nM | 0.1 | 408 ± 111 | 408 | Ki [3]: 40.5 nM
12 | CCC(=O)c1ccc(OCCCCCCCCN2CCN(c3ccncc3)CC2)cc1 [Compound 20] | 65.9 ± 11 | 65.9 nM | 0.2 | 274 ± 40.4 | 274 | Ki [3]: 38.9 nM
13 | C#CCN(C)Cc1cc2cc(OCCCN3CCCCC3)ccc2n1C [Contilisant] | – | – | – | – | – | Ki (σ1R [1]; [10]): 65.2 nM; Ki (σ2R [9]; Figure 1, clinically evaluated H3R antagonists, read-out: σ2R Ki): 326 nM; Ki (H3R): 10.8 nM
14 | COc1cc2c(cc1OC)CN(CCCCNC(=O)c1cc(C)ccc1OCCF)CC2 [F-ISO] | – | – | – | – | – | Ki (σ1R [1]; [11]): 330 nM; Ki (σ2R [9]; [17]): 6.95 nM
15 | CNC(=O)c1ccc(Oc2ccc3c(c2)CCN(C2CCC2)CC3)nc1 [GSK189254] | – | – | – | – | – | Ki (σ1R [1]; [10]): 240 nM; Ki (H3R): 1.7 nM
16 | CC(C(O)c1ccc(O)cc1)N1CCC(Cc2ccccc2)CC1 (stereo not drawn) [Ifenprodil] | – | – | – | – | – | Ki (σ1R [1]; [11]): 1.02 nM; Ki (σ2R [9]; [17]): 18.8 nM
17 | c1cc(OCCCN2CCCCC2)ccc1CN1CCCCC1 [JNJ-5207852] | – | – | – | – | – | Ki (σ1R [1]; [10]): 1170 nM; Ki (H3R): 0.3 nM
18 | O=C(OCCN1CCOCC1)C1(c2ccccc2)CCCCC1 [PRE-084, 2-[4-morpholinethyl]1-phenylcyclohexanecarboxylate hydrochloride] | – | – | – | – | – | Ki [8]: > 10000 nM; effect of coadministration on potentiation of loperamide antinociception by S1RA (female CD1 mice; mice, 75 μg ipl with S1RA, loperamide-treated, identical with 5 or 11): completely abolished the effect of the σ1R antagonist; Ki (σ2R [9]; [17]): 13100 nM; Ki (σ2R [9]; reference σ1R ligands, read-out: σ2R Ki): > 10000 nM
19 | COOc1c(OC)cc(I)cc1C(=O)NCCCCN1CCc2cc(OC)c(OC)cc2C1 [RHM-4, N-(4-(6,7-Dimethoxy-3,4-dihydroisoquinolin-2(1H)-yl)butyl)-5-iodo-3-methoxy-2-(methylperoxy)benzamide] | – | – | 0.00012 | – | – | Ki (σ1R [1]; read-out: σ1R Ki): 2150 nM; Ki (σ2R [9]; read-out: σ2R Ki): 0.26 nM
20 | Cc1cc(OCCN2CCOCC2)nn1-c1ccc2ccccc2c1 [S1RA, 4-[2-[[5-methyl-1-(2-naphthalenyl)-1H-pyraol-3-yl]oxy]ethyl]morpholine hydrochloride, reference compound] | – | – | – | – | – | Ki [8]: > 10000 nM; effect on loperamide-induced antinociception (female CD1 mice; [16]): significantly increased the antinociceptive effect induced by loperamide; effect alone on struggle response latency to mechanical stimulus (female CD1 mice; mice, ipl 100 μg): did not change the response to the mechanical stimulus
21 | CN(C)C(=O)C(CCN1CCC(O)(c2ccc(Cl)cc2)CC1)(c1ccccc1)c1ccccc1 [loperamide, loperamide hydrochloride, reference compound] | – | – | – | – | – | struggle response latency versus solvent (female CD1 mice; mice, 4 mg/kg sc alone): minimal (nonsignificant) increase in the struggle response latency
22 | C=CCN1CC[C@]23c4c5ccc(O)c4O[C@H]2C(=O)CC[C@@]3(O)[C@H]1C5 [naloxone, Naloxone hydrochloride, reference compound] | – | – | – | – | – | effect on antinociception of loperamide + S1RA (female CD1 mice; mice, 1 mg/kg sc, identical with 5 or 11): full reversion of the antinociceptive effect of the combination of loperamide + S1RA

Now from value to molecule, other results behind:

Row | Ki (σ2R [2]; [12]) [nM] | Ki (σ2R [2]; [13]) | σ2/σ1 ratio (σ1R [4]) | Ki (σ1R [5]; [14]) [nM] | Ki (σ1R [5]; [15]) [nM] | SMILES | other results
23 | 64.3 ± 14 | 64.3 nM | 0.1 | 592 ± 94.1 | 592 | CCc1ccc(OCCCN2CCN(c3ccncc3)CC2)cc1 [Compound 1] | Ki [3]: 40.4 nM
24 | 130 ± 8.23 | 130 nM | 1.2 | 112 ± 9.45 | 112 | CC(C)(C)c1ccc(OCCCN2CCN(c3ccncc3)CC2)cc1 [Compound 2] | –
25 | 247 ± 39.4 | 247 nM | 0.2 | 1410 ± 312 | 1410 | CC(=O)c1ccc(OCCCN2CCN(c3ccncc3)CC2)cc1 [Compound 3] | –
26 | 108 ± 19.2 | 108 nM | 0.2 | 638 ± 120 | 638 | c1ccc(-c2ccc(OCCCN3CCN(c4ccncc4)CC3)cc2)cc1 [Compound 6] | Ki [3]: 21.1 nM
27 | 75.2 ± 13 | 75.2 nM | – | – | – | N#Cc1ccc(-c2ccc(OCCCN3CCN(c4ccncc4)CC3)cc2)cc1 [Compound 7] | –
28 | 67.9 ± 7.51 | 68 nM and 67.9 nM | – | 4.41 ± 0.58 | 4.41 | c1ccc(-c2ccc(OCCCN3CCCCC3)cc2)cc1 [Compound 11] | Ki (hH2R): > 100000 nM; functional character at σ1 receptor deduced in vivo (female CD1 mice): σ1 receptor antagonists; effect on loperamide-induced antinociception (female CD1 mice; mice, ipl 50 μg + loperamide 4 mg/kg sc): increased the antinociceptive effect of loperamide at the injected paw; effect alone on struggle response latency to mechanical stimulus (female CD1 mice; mice, ipl 50 μg): did not have any effect per se; Ki (hH1R [7]): > 10000 nM; Ki (hH4R): > 10000 nM
29 | 96.2 ± 14.7 | 96.2 nM | 6.5 | 14.8 ± 1.86 | 14.8 | O=C(c1ccccc1)c1ccc(OCCCN2CCCCC2)cc1 [Compound 12] | Ki [8]: 22 nM
30 | 175 ± 35.1 | 175 nM | 3.4 | 51.8 ± 9.1 | 51.8 | CC(C)(C)c1ccc(OCCCCN2CCN(c3ccncc3)CC2)cc1 [Compound 13] | –
31 | 101 ± 19.3 | 101 nM | 0.4 | 285 ± 50.4 | 285 | CCC(C)(C)c1ccc(OCCCCN2CCN(c3ccncc3)CC2)cc1 [Compound 14] | –
32 | 1790 ± 415 | 1800 nM | <0.2 | > 10000 | > 10000 | CC(=O)c1ccc(OCCCCN2CCN(c3ccncc3)CC2)cc1 [Compound 15] | –

— paper PMC8739840, “Structural and Molecular Insight into Piperazine and Piperidine Derivatives as Histamine H3 and Sigma-1 Receptor Antagonists with Promising Antinociceptive Properties” (ACS Chemical Neuroscience, 2021)
